{"source": "paper PMC9343080", "about": "“Distribution- and Metabolism-Based Drug Discovery: A Potassium-Competitive Acid Blocker as a Proof of Concept” (Research, 2022)", "key": {"Rat microsomal stability": {"experiment": "Rat microsomal stability", "type": "in vitro ADME", "procedure": "The in vitro metabolic stabilities of selected compounds were performed using human and rat liver microsomes in triplicate as described previously."}, "[1]": {"experiment": "Tissue distribution of SH-337 in rats (LC-MS/MS)", "type": "in vivo, rat", "details": "for concentration at 15 min / concentration at 1 h / concentration at 2 h / concentration at 4 h / concentration at 24 h: po, 4 mg/kg", "procedure": "15 SPF male SD rats were randomly divided into 5 groups, three per group. Fasting was for 4 hours. Plasma, heart, liver, and stomach were obtained 0.25, 1, 2, 4, and 24 hours after oral administration of SH-337 (0.4 mg/mL in water) at a dose of 4 mg/kg. At designated time points, rats were anesthetized with ether, and the blood samples were collected via the abdominal aorta. The blood was immediately cooled under ice-chilled conditions and centrifuged at approximately 1500 × g at 4°C for 10 minutes to obtain the plasma. For plasma: 20 μL Std samples in duplicate, QC samples in duplicate, and rat plasma samples were mixed with 60 μL ACN containing IS (200 ng/mL of tolbutamide, 50 ng/mL of propranolol, and 500 ng/mL of Dic) in EP tubes. After the mixture was vortexed for 1 min and then centrifuged for 10 min (13000 rpm, 4°C), transfer 50 μL supernatant to a 96-well plate with 150 μL pure water, shake for 10 min, and finally analyze by LC-MS/MS. For heart and liver: tissue samples were added with 3-folds (w/v) saline in terms of the weight of samples and then homogenated. 20 μL Std samples in duplicate, QC samples in duplicate, and rat heart and liver samples were mixed with 60 μL ACN containing IS (200 ng/mL of tolbutamide, 50 ng/mL of propranolol, and 500 ng/mL of Dic) in EP tubes. After the mixture was vortexed for 1 min and then centrifuged for 10 min (13000 rpm, 4°C), transfer 50 μL supernatant to a 96-well plate with 150 μL pure water, shake for 10 min, and finally analyze by LC-MS/MS. For stomach: tissue samples were added with 3-folds (w/v) saline in terms of the weight of samples and then homogenated. 20 μL Std samples in duplicate, QC samples in duplicate, and rat stomach samples were mixed with 60 μL ACN containing IS (200 ng/mL of tolbutamide, 50 ng/mL of propranolol, and 500 ng/mL of Dic) in EP tubes. After the mixture was vortexed for 1 min and then centrifuged for 10 min (13000 rpm, 4°C), transfer 50 μL supernatant to a 96-well plate with 150 μL pure water, shake for 10 min, and finally analyze by LC-MS/MS."}, "[2]": {"test_system": "2-DG-stimulated gastric acid secretion", "experiment": "In vivo inhibition of 2DG-stimulated acid secretion in anesthetized rats", "set-up": "species or system rat", "procedure": "60 SPF SD rats weighing 180-220 g were randomly divided into […]: sham, model, SH-337 (2 mg/kg and 4 mg/kg), vonoprazan (2 mg/kg), males and females are equally divided. Fasting for 24 hours, model and sham groups were treated with deionized water. Drugs and vehicle were given through intragastric administration to rats before anesthesia. 1 h after administration, pylorus was ligated. 5 min later, histamine 2HCl (30 mg/10 mL/kg) was injected subcutaneously. At 3 h after histamine administration, the rats were killed by CO2 asphyxiation. The gastric contents were collected in a 10 mL centrifuge tube after removing their stomachs. Centrifuge at 3000 g for 10 min, and then, determine the total acid output during a 3 h period by 0.1 M NaOH [52, 53]. %Inhibition = (average of modelacid–drugacid)/average of modelacid × 100%.\nThe 2DG-stimulated acid secretion in anesthetized rats was measured as described as for histamine-stimulated acid secretion, with the exception that 5 min after pylorus ligation, 2-DG (200 mg/10 mL/kg) was injected subcutaneously."}, "[3]": {"experiment": "Metabolite identification and profiling in rat liver microsomes", "type": "in vitro ADME", "details": "SH-337 10 µM, 30 min incubation", "procedure": "(§1) Liver microsomes (1 mg protein/mL) were suspended in phosphate buffer (50 mM, pH 7.4) containing MgCl2 (6 mM). […] The reactions were initiated at 37°C by the addition of 1 mM NADPH and terminated at 30 min or 60 min (30 min for rat; 60 min for human). The samples were precipitated with acetonitrile at 1 : 2 and further centrifuged; the supernatants were dried with a stream of N2 gas. The residues were reconstituted with 300 μL of 10% acetonitrile/H2O (0.1% TFA) and analyzed by LC-MS/MS. The assays were pursued under the conditions provided in Supplementary Tables S4, S6, S7, and S8."}, "[4]": {"experiment": "Metabolite identification and profiling in human liver microsomes", "type": "in vitro ADME", "details": "SH-337 10 µM, 60 min incubation", "procedure": "as §1"}, "[5]": {"experiment": "Acute (single-dose) toxicity test", "type": "in vivo", "details": "SD rats, single dose of 1000 mg/kg, i.g.", "procedure": "For acute toxicity test: 12 SPF SD rats were randomly divided into three groups and received a single dose of SH-337 (1000 mg/kg, i.g.), and the animal tolerance was recorded within 2 hours. For two-week repeat-dose toxicity test: 20 SPF SD rats were randomly divided into two groups and received SH-337 (100, 200 mg/kg, i.g.) once daily for 14 days. SH-337 was dissolved in 0.5% CMC-Na. The body weight of the rats was recorded every 7 days. During the experiment, clinical parameters included apparent changes in the mental state, skin or fur, behavior, genitals, mucous membranes, respiration, stool consistency, glandular organ secretions, mortality, or other toxic results that were recorded. In addition, animal bodyweight and food intake were assessed once weekly over the study period. At the end of the experiment, the rats were sacrificed, and the serum hematological parameters and serum biochemistry parameters were recorded."}, "[6]": {"details": "rats, single oral 4 mg/kg SH-337"}, "[7]": {"details": "stomach-liver distribution ratio, rats, oral 4 mg/kg"}}, "note": "Read-outs that look alike come from different tables or passages of the source.", "data": [{"compound": "CNCc1cc(-c2ccc(OCC3CC3)cc2F)n(S(=O)(=O)c2cccnc2)c1.Cl.Cl", "note": "[SH-337, 1-(5-(4-(cyclopropylmethoxy)-2-fluorophenyl)-1-(pyridin-3-ylsulfonyl)-1H-pyrrol-3-yl)-N-methylmethanamine dihydrochloride]", "values": [{"measurement": "fold reduction of t1/2 vs. vonoprazan", "setting": "Rat microsomal stability; rat microsomes", "result": 17.6, "unit": "fold"}, {"measurement": "half-life", "setting": "Rat microsomal stability; rat, rat liver microsomes, read-out: Metabolic stability (t1/2) rat", "result": 3.1, "unit": "min"}, {"measurement": "C Stomach/CLiver (stomach-liver distribution ratio)", "setting": "[1]; AUC, rats, i.g. 4 mg/kg SH-337", "result": 7.1}, {"measurement": "concentration at 15 min", "setting": "[1]; male, SD, rat, liver, rats, single oral 4 mg/kg SH-337, read-out: Concentration, Liver, 15 min", "result": 5240, "unit": "ng/mL"}, {"measurement": "concentration at 1 h", "setting": "[1]; male, SD, rat, liver, rats, single oral 4 mg/kg SH-337, read-out: Concentration, Liver, 1 h", "result": 846, "unit": "ng/mL"}, {"measurement": "concentration at 2 h", "setting": "[1]; male, SD, rat, liver, rats, single oral 4 mg/kg SH-337, read-out: Concentration, Liver, 2 h", "result": 262, "unit": "ng/mL"}, {"measurement": "concentration at 4 h", "setting": "[1]; male, SD, rat, liver, rats, single oral 4 mg/kg SH-337, read-out: Concentration, Liver, 4 h", "result": 145, "unit": "ng/mL"}, {"measurement": "concentration at 24 h", "setting": "[1]; male, SD, rat, liver, rats, single oral 4 mg/kg SH-337, read-out: Concentration, Liver, 24 h", "result": 1.3, "unit": "ng/mL"}, {"measurement": "concentration at 1 h", "setting": "[1]; male, SD, rat, plasma, rats, 1 h after oral administration of 4.0 mg/kg (Table 2), read-out: Drug concentration, Plasma", "result": 7.1, "unit": "ng/mL"}, {"measurement": "concentration at 15 min", "setting": "[1]; male, SD, rat, plasma, rats, single oral 4 mg/kg SH-337, read-out: Concentration, Plasma, 15 min", "result": 9.4, "unit": "ng/mL"}, {"measurement": "concentration at 1 h", "setting": "[1]; male, SD, rat, plasma, rats, single oral 4 mg/kg SH-337, read-out: Concentration, Plasma, 1 h", "result": 15.5, "unit": "ng/mL"}, {"measurement": "concentration at 2 h", "setting": "[1]; male, SD, rat, plasma, rats, single oral 4 mg/kg SH-337, read-out: Concentration, Plasma, 2 h", "result": 5.1, "unit": "ng/mL"}, {"measurement": "concentration at 4 h", "setting": "[1]; male, SD, rat, plasma, rats, single oral 4 mg/kg SH-337, read-out: Concentration, Plasma, 4 h", "result": 6.7, "unit": "ng/mL"}, {"measurement": "AUC(0-t)", "setting": "[1]; male, SD, rat, plasma, rats, single oral 4 mg/kg SH-337, read-out: AUC-last, Plasma", "result": 32.6, "unit": "ng·h/mL"}, {"measurement": "Kp", "setting": "[1]; male, SD, rat, stomach / plasma, oral, AUC, rats, i.g. 4 mg/kg SH-337, read-out: C Stomach/CPlasma (stomach-plasma distribution ratio)", "result": 1360}, {"measurement": "concentration at 1 h", "setting": "[1]; male, SD, rat, stomach, rats, 1 h after oral administration of 4.0 mg/kg (Table 2), read-out: Drug concentration, Stomach", "result": 6690, "unit": "ng/mL"}, {"measurement": "concentration at 15 min", "setting": "[1]; male, SD, rat, stomach, rats, single oral 4 mg/kg SH-337, read-out: Concentration, Stomach, 15 min", "result": 9820, "unit": "ng/mL"}, {"measurement": "concentration at 1 h", "setting": "[1]; male, SD, rat, stomach, rats, single oral 4 mg/kg SH-337, read-out: Concentration, Stomach, 1 h", "result": 3340, "unit": "ng/mL"}, {"measurement": "concentration at 2 h", "setting": "[1]; male, SD, rat, stomach, rats, single oral 4 mg/kg SH-337, read-out: Concentration, Stomach, 2 h", "result": 3030, "unit": "ng/mL"}, {"measurement": "concentration at 4 h", "setting": "[1]; male, SD, rat, stomach, rats, single oral 4 mg/kg SH-337, read-out: Concentration, Stomach, 4 h", "result": 2810, "unit": "ng/mL"}, {"measurement": "concentration at 24 h", "setting": "[1]; male, SD, rat, stomach, rats, single oral 4 mg/kg SH-337, read-out: Concentration, Stomach, 24 h", "result": 136, "unit": "ng/mL"}, {"measurement": "Kp at 1 h", "setting": "[1]; male, SD, rat, ratio of stomach to plasma distribution 1 h after oral administration of 4.0 mg/kg, read-out: C Stomach/CPlasma", "result": 943}, {"measurement": "AUC0–24, Liver", "setting": "[1]; rats, i.g. 4 mg/kg SH-337", "result": "6155.6 ng equiv. h/mL or g"}, {"measurement": "AUC0–24, Plasma", "setting": "[1]; rats, i.g. 4 mg/kg SH-337", "result": "32.6 ng equiv. h/mL or g"}, {"measurement": "AUC0–24, Stomach", "setting": "[1]; rats, i.g. 4 mg/kg SH-337", "result": "44240.4 ng equiv. h/mL or g"}, {"measurement": "retention in the stomach", "setting": "[1]; rats, oral 4 mg/kg", "result": "more than 24 h"}, {"measurement": "AUC-last, Liver", "setting": "[1]; [6]", "result": 6155.6, "unit": "ng·h/g"}, {"measurement": "AUC-last, Stomach", "setting": "[1]; [6]", "result": 44240.4, "unit": "ng·h/g"}, {"measurement": "Concentration, Plasma, 24 h", "setting": "[1]; rats, single oral 4 mg/kg SH-337, BLQ: below limit of quantification", "result": "BLQ"}, {"measurement": "CStomach/CLiver, 15 min", "setting": "[1]; [7]", "result": 1.9}, {"measurement": "CStomach/CLiver, 1 h", "setting": "[1]; [7]", "result": 3.95}, {"measurement": "CStomach/CLiver, 2 h", "setting": "[1]; [7]", "result": 11.6}, {"measurement": "CStomach/CLiver, 4 h", "setting": "[1]; [7]", "result": 19.4}, {"measurement": "CStomach/CLiver, 24 h", "setting": "[1]; [7]", "result": 104.9}, {"measurement": "Inhibition (%), 2-DG-stimulated model", "setting": "[2]; i.g. 2 mg/kg", "result": 78, "unit": "%"}, {"measurement": "Total acid output, 2-DG-stimulated model", "setting": "[2]; i.g. 2 mg/kg", "result": "0.65 ± 0.31^∗∗ 10^−4 mol"}, {"measurement": "Inhibition (%), 2-DG-stimulated model", "setting": "[2]; i.g. 4 mg/kg", "result": 91, "unit": "%"}, {"measurement": "Total acid output, 2-DG-stimulated model", "setting": "[2]; i.g. 4 mg/kg", "result": "0.29 ± 0.29^∗∗ 10^−4 mol"}, {"measurement": "Relative peak area, RLMs", "setting": "[3]", "result": 45.7, "unit": "%"}, {"measurement": "Relative peak area, HLMs", "setting": "[4]", "result": 68.9, "unit": "%"}, {"measurement": "animal death", "setting": "[5]", "result": "no animal death was observed"}, {"measurement": "single-dose toxicity (tolerance)", "setting": "[5]", "result": "well tolerated"}]}]}
